From patent US5416070A, “Composition for macrophage activation” (ImmunoTherapeutics, Inc., priority 1990, dated 1995)

How the values were obtained:
Type in all cases: cell-based
[1] = tested on: human peripheral blood monocytes; assay: Activation of monocytes in vitro measured by production of tumor necrosis factor (ELISA); conditions: for TNF (pg/ml) at given Concentration of Compound: 24 Hours
Description: (§1) Human peripheral blood monocytes were isolated by density gradient centrifugation as noted in Example 13. The cell number was adjusted to 5×10^5 cells per ml in RPM 1640 media containing 5% human AB negative serum. One ml containing 5×10^5 cells were placed in individual wells of a 24-well Plastek tissue culture plate. Various drugs in a volume of 0.5 ml were added at time zero. The cells were incubated at 37° C. in a 5% CO2 atmosphere. Aliquots (0.1 ml) of the supernatant were removed at 24 hours and frozen at -80° C. These samples were subsequently assayed for tumor necrosis factor (TNF) activity using a commercially available ELISA Assay from T-Cell Sciences (Cambridge, Mass.).
Human peripheral blood monocytes were isolated by density gradient centrifugation as described in Example 13. The cells were plated in 24-well microliter plates as described in Example 33. The compounds Were prepared in liposomes as described in Example 10, and assayed for TNF production, as described in Example 33. The results are set forth in Table 5, and show significant levels of TNF compared to controls.
as §1, with “of” for “of a”, “zero. The compounds were also formulated in liposomes as described in Example 10, and added in a volume of 0.5 ml to individual wells of a 24-well Plastek tissue culture plate.” for “zero.”, “-20°” for “-80°”, “TNF as described in Example 33 and Interleukin-1-beta (IL-1β)” for “tumor necrosis factor (TNF) activity”, “kit” for “Assay”, “Cistron (Pine Brook, N.J.).” for “T-Cell Sciences (Cambridge, Mass.).”

[2] = tested on: human peripheral blood monocytes; assay: Activation of monocytes in vitro measured by production of Interleukin-1-beta (ELISA); conditions: 24 Hours
Description: as §1, with “of” for “of a”, “zero. The compounds were also formulated in liposomes as described in Example 10, and added in a volume of 0.5 ml to individual wells of a 24-well Plastek tissue culture plate.” for “zero.”, “-20°” for “-80°”, “TNF as described in Example 33 and Interleukin-1-beta (IL-1β)” for “tumor necrosis factor (TNF) activity”, “kit” for “Assay”, “Cistron (Pine Brook, N.J.).” for “T-Cell Sciences (Cambridge, Mass.).”

[3] = tested on: Human peripheral blood mononuclear cells; assay: Activation of monocytes in vitro measured by in vitro tumor cell cytotoxicity
Description: Human peripheral blood mononuclear cells were isolated by density gradient centrifugation on 46% Percoll. 1×10^5 of the mononuclear cells were plated onto Falcon microliter plates and allowed to adhere for two hours. The non-adherent cells were removed and fresh media added. The cells were allowed to incubate for 24 hours after which various concentrations of the drug either alone or incorporated in liposomes was added. After 24 hours, the plates were washed and 1×10^4 I^125 labelled target cells were added. Following an additional 72 hours of coincubation, the plates were washed and the residual radioactivity determined. The specific cytotoxicity was calculated from the formula: [formula] The results of cytotoxicity assay of various compounds alone or incorporated in liposomes at various concentrations is given in Table 6.

[4] = Table 7, Experiment 1, 0.01 μg/ml
[5] = Table 7, Experiment 1, 0.1 μg/ml
[6] = Table 7, Experiment 1, 1.0 μg/ml
[7] = Table 7, Experiment 1, 10.0 μg/ml
[8] = Table 8, Experiment 1, 0.01 μg/ml
[9] = Table 8, Experiment 1, 0.1 μg/ml
[10] = Table 8, Experiment 1, 1.0 μg/ml
[11] = Table 8, Experiment 1, 10.0 μg/ml
[12] = Experiment 3, free drug in saline 0.1 μg/ml, 24 hours
[13] = Experiment 3, free drug in saline 1.0 μg/ml, 24 hours
[14] = Experiment 3, free drug in saline 10.0 μg/ml, 24 hours
[15] = PC/PG liposomes (7:3), 0.1 μg/ml
[16] = PC/PG liposomes (7:3), 1.0 μg/ml
[17] = PC/PG liposomes (7:3), 10.0 μg/ml
[18] = no formulation given (drug alone), 0.1 μg/ml
[19] = no formulation given (drug alone), 1.0 μg/ml
[20] = no formulation given (drug alone), 10.0 μg/ml
[21] = Table 9, Experiment 2, 0.1 μg/ml
[22] = Table 9, Experiment 2, 1.0 μg/ml
[23] = Table 9, Experiment 2, 10.0 μg/ml

Row | SMILES | TNF (pg/ml) at given Concentration of Compound [1, 5] [pg/mL] | TNF (pg/ml) at given Concentration of Compound [1, 6] [pg/mL] | TNF (pg/ml) at given Concentration of Compound [1, 7] [pg/mL] | IL-1-beta (pg/ml) at given Concentration of Compound [2, 8] [pg/mL] | IL-1-beta (pg/ml) at given Concentration of Compound [2, 9] [pg/mL] | IL-1-beta (pg/ml) at given Concentration of Compound [2, 10] [pg/mL] | IL-1-beta (pg/ml) at given Concentration of Compound [2, 11] [pg/mL] | TNF Level [1, 12] [pg/mL] | TNF Level [1, 13] [pg/mL] | TNF Level [1, 14] [pg/mL] | also measured
1 | CCCCCCCCCCCCCCCC(=O)OCC(COC(=O)C(C)NC(=O)CCC(NC(=O)C(NC(=O)C(C)OC1C(NC(C)=O)C(O)OC(CO)C1OC1OC(CO)C(O)C(O)C1NC(C)=O)C(C)O)C(N)=O)OC(=O)CCCCCCCCCCCCCCC [IID, GlcNAcMurNAc-F-Thr-D-isoGln-F-Ala-DPG] | 320 | 1080 | 2150 | 70 | 14 | 170 | 690 |  |  |  | TNF (pg/ml) at given Concentration of Compound [1, 4]: 70 pg/mL
2 | CCCCCCCCCCCCCCCC(=O)OCC(COC(=O)C(C)NC(=O)CCC(NC(=O)C(C)NC(=O)C(C)OC1C(NC(C)=O)C(O)OC(CO)C1OC1OC(CO)C(O)C(O)C1NC(C)=O)C(N)=O)OC(=O)CCCCCCCCCCCCCCC [Compound IIC, GlcNAcMurNAc-D-Ala-D-isoGln-D-Ala-DPG] |  |  |  |  |  |  |  |  |  |  | TNF Level ([1]; Experiment 4, free drug in saline 0.1 μg/ml, 24 hours): 40 pg/mL; TNF Level ([1]; Experiment 4, free drug in saline 1.0 μg/ml, 24 hours): 110 pg/mL; TNF Level ([1]; Experiment 4, free drug in saline 10.0 μg/ml, 24 hours): 450 pg/mL
3 | CCCCCCCCCCCCCCCC(=O)OCC(COC(=O)CCCCCCCCCCCCCCC)NC(=O)C(C)NC(=O)CCC(NC(=O)C(NC(=O)C(C)OC1C(NC(C)=O)C(O)OC(CO)C1OC1OC(CO)C(O)C(O)C1NC(C)=O)C(C)O)C(N)=O [ID, GlcNAcMurNAc-F-Thr-D-isoGln-F-Ala-NHDPG] | 0 | 250 | 1060 | 10 | 16 | 8 | 90 |  |  |  | 
4 | CCCCCCCCCCCCCCCC(=O)OCC(COC(=O)CCCCCCCCCCCCCCC)NC(=O)C(C)NC(=O)CCC(NC(=O)C(C)NC(=O)C(C)OC1C(NC(C)=O)C(O)OC(CO)C1OC1OC(CO)C(O)C(O)C1NC(C)=O)C(N)=O [Compound IA, 4-O-[2-acetamido-2-deoxy-β-D-glucopyranosyl]-2-acetamido-2-deoxy-3-O-[D-2-propanoyl-L-alanyl-D-isoglutaminyl-L-alanyl-2-(1,3-dipalmitoyloxy)propylamide]-D-glucopyranose] |  |  |  |  |  |  |  | 280 | 1000 | 1680 | TNF Level ([1]; Table 5, compound incorporated in liposomes, 0.1 μg/ml): 430 pg/mL; TNF Level ([1]; Table 5, compound incorporated in liposomes, 1.0 μg/ml): 800 pg/mL; TNF Level ([1]; Table 5, compound incorporated in liposomes, 10.0 μg/ml): 750 pg/mL; Cytotoxicity [3, 15]: 7.0%; Cytotoxicity [3, 16]: 7.0%; Cytotoxicity [3, 17]: 6.0%; Cytotoxicity ([3]; PC/PS liposomes (7:3), 0.1 μg/ml): 8.0%; Cytotoxicity ([3]; PC/PS liposomes (7:3), 1.0 μg/ml): 5.0%; Cytotoxicity ([3]; PC/PS liposomes (7:3), 10.0 μg/ml): 19.0%; Cytotoxicity [3, 18]: 1.0%; Cytotoxicity [3, 19]: 4.0%; Cytotoxicity [3, 20]: 3.0%
5 | CCCCCCCCCCCCCCCC(=O)OCC(COC(=O)C(C)NC(=O)CCC(NC(=O)C(NC(=O)C(C)OC1C(NC(C)=O)C(O)OC(CO)C1OC1OC(CO)C(O)C(O)C1NC(C)=O)C(C)C)C(N)=O)OC(=O)CCCCCCCCCCCCCCC [IIF, GlcNAcMurNAc-F-Val-D-isoGln-F-Ala-DpG] | 440 | 480 | 400 | 220 | 212 | 260 | 260 |  |  |  | TNF (pg/ml) at given Concentration of Compound [1, 4]: 510 pg/mL
6 | CCCCCCCCCCCCCCCC(=O)OCC(COC(=O)CCCCCCCCCCCCCCC)NC(=O)C(C)NC(=O)CCC(NC(=O)C(C)NC(=O)C(C)OC1C(NC(C)=O)C(O)OC(CO)C1OC1OC(CO)C(O)C(O)C1NC(C)=O)C(N)=O [Compound IB, GlcNAcMurNAc-L-Ala-D-isoGln-D-Ala-NHDPG] |  |  |  |  |  |  |  | 180 | 350 | 1980 | 
7 | CCCCCCCCCCCCCCCC(=O)OCC(COC(=O)C(NC(=O)CCC(NC(=O)C(C)NC(=O)C(C)OC1C(NC(C)=O)C(O)OC(CO)C1OC1OC(CO)C(O)C(O)C1NC(C)=O)C(N)=O)C(C)C)OC(=O)CCCCCCCCCCCCCCC [IIG, GlcNAcMurNAc-F-Ala-D-isoGln-F-Val-DpG] |  |  |  |  |  |  |  |  |  |  | TNF (pg/ml) at given Concentration of Compound [1, 21]: 1150 pg/mL; TNF (pg/ml) at given Concentration of Compound [1, 22]: 1500 pg/mL; TNF (pg/ml) at given Concentration of Compound [1, 23]: 1400 pg/mL
8 | CC(=O)NC1C(OC2C(CO)OC(O)C(NC(C)=O)C2OC(C)C(=O)NC(C(=O)NC(CCC(=O)O)C(N)=O)C(C)O)OC(CO)C(O)C1O [GlcNAcMurNAc-L-Thr-D-isoGln] | 440 | 1050 | 1050 | 50 | 70 | 230 | 630 |  |  |  | TNF (pg/ml) at given Concentration of Compound [1, 4]: 200 pg/mL
9 | CCCCCCCCCCCCCCCC(=O)OCC(COC(=O)C(C)NC(=O)CCC(NC(=O)C(CO)NC(=O)C(C)OC1C(NC(C)=O)C(O)OC(CO)C1OC1OC(CO)C(O)C(O)C1NC(C)=O)C(N)=O)OC(=O)CCCCCCCCCCCCCCC [IIE, GlcNAcMurNAc-F-Ser-D-isoGln-F-Ala-DPG] |  |  |  |  |  |  |  |  |  |  | TNF (pg/ml) at given Concentration of Compound [1, 21]: 150 pg/mL; TNF (pg/ml) at given Concentration of Compound [1, 22]: 800 pg/mL; TNF (pg/ml) at given Concentration of Compound [1, 23]: 1500 pg/mL
10 | CCCCCCCCCCCCCCCC(=O)OCC(COC(=O)CCCCCCCCCCCCCCC)NC(=O)C(C)NC(=O)CCC(NC(=O)C(C)NC(=O)C(C)OC1C(NC(C)=O)C(O)OC(CO)C1OC1OC(CO)C(O)C(O)C1NC(C)=O)C(N)=O [Compound IC, GlcNAcMurNAc-D-Ala-D-isoGln-D-Ala-NHDPG] |  |  |  |  |  |  |  | 280 | 300 | 250 | Cytotoxicity [3, 15]: 10.0%; Cytotoxicity [3, 16]: 4.0%; Cytotoxicity [3, 17]: 12.0%; Cytotoxicity [3, 18]: 5.0%; Cytotoxicity [3, 19]: 16.0%; Cytotoxicity [3, 20]: 15.0%
11 | CCCCCCCCCCCCCCCC(=O)OCC(COC(=O)C(C)NC(=O)CCC(NC(=O)C(C)NC(=O)C(C)OC1C(NC(C)=O)C(O)OC(CO)C1OC1OC(CO)C(O)C(O)C1NC(C)=O)C(N)=O)OC(=O)CCCCCCCCCCCCCCC [Compound IIB, 4-O-[2-acetamido-2-deoxy-β-D-glucopyranosyl]-2-acetamido-2-deoxy-3-O-[D-2-propanoyl-L-alanyl-D-isoglutaminyl-D-alanyl-1,2-dipalmitoyl-sn-glycerol]-D-glucopyranose] |  |  |  |  |  |  |  | 250 | 500 | 1600 | 
